Laboratory results as given in patent US8735323B2, “Fungicide N-5-membered fused heteroaryl-methylene-N-cycloalkyl-carboxamide derivatives” (Bayer Cropscience AG, priority 2007, dated 2014).

Test: logP determination by HPLC on reversed-phase column (C 18), EEC Directive 79/831 Annex V.A8
Format: physicochemical
Settings: C 18 reversed-phase, 40° C., 0.1% aqueous formic acid and acetonitrile gradient
Procedure: In the following table, the logP values were determined in accordance with EEC Directive 79/831 Annex V.A8 by HPLC (High Performance Liquid Chromatography) on a reversed-phase column (C 18), using the method described below: Temperature: 40° C.; Mobile phases: 0.1% aqueous formic acid and acetonitrile; linear gradient from 10% acetonitrile to 90% acetonitrile. Calibration was carried out using unbranched alkan-2-ones (comprising 3 to 16 carbon atoms) with known logP values (determination of the logP values by the retention times using linear interpolation between two successive alkanones).

LogP: 3.89
Structure (SMILES): CCc1nn(C)c(F)c1C(=O)N(Cc1cn(-c2ccccc2)c2ccccc12)C1CC1 [Compound 29]
